Assay results reported in PMC7508583, “Discovery and Preclinical Development of Antigiardiasis Fumagillol Derivatives” (Antimicrobial Agents and Chemotherapy, 2020).

Assay: Single-dose acute toxicity (MTD) and histopathology
Settings: in vivo
Protocol: The tissues of three surviving mice were analyzed along with the tissues of three animals treated with the vehicle alone. […] Based on these findings, the maximum tolerated dose (MTD) value was determined to be 1,500 mg/kg.
The maximum tolerated dose (MTD) determination was performed using 8- to 10-week-old C57BL/6 female mice in five groups of 6 animals each. The mice were acclimated to the study room for a week. Animals were randomized by body weight prior to being assigned to dosage groups at the outset of the study. […] Following an up-down dosing strategy, the clinical signs and body weights of the animals in a study group were evaluated daily for 5 days before escalating or reducing the dose administered to the next group, as appropriate. The clinical observations included posture, vocalization, ease of handling, lacrimation, chromodacryorrhea, salivation, coat appearance, rearing frequency, transfer arousal, piloerection, motor movements, tail pinch, and diarrhea.
The histopathology examination included 3 mice that survived treatment with the 2,000-mg/kg dose and 3 mice that received the vehicle alone. Brain, heart, lung, spleen, and liver tissues were examined. Formalin-fixed tissues were embedded in paraffin to produce 4-μm-thick sections. The paraffin wax was removed, and the tissues were stained with Gill’s hematoxylin for 5 to 10 min. The samples were rinsed in tap water, followed by ammonia water, and stained with eosin Y for 5 min. The hematoxylin-eosin-stained tissues were dehydrated and mounted for light microscopic examination.

CO[C@@H]1[C@H](OC(=O)Nc2ccc(C(=O)O)cc2)CC[C@]2(CO2)[C@H]1[C@@]1(C)O[C@@H]1CC=C(C)C [Compound 9, 4-(((((3R,4S,5S,6R)-5-methoxy-4-((2R,3R)-2-methyl-3-(3-methylbut-2-en-1-yl)oxiran-2-yl)-1-oxaspiro[2.5]octan-6-yl)oxy)carbonyl)amino)benzoic acid]
LD50 at 5 days (female, C57BL/6, mouse, po): > 2000 mg/kg
MTD at 5 days (female, C57BL/6, mouse, po): 1500 mg/kg
histopathology of liver, heart, brain, lung, spleen (mouse): normal tissue with no significant changes compared with the control tissues
mortality (mouse): two mice died unexpectedly
reduced body weight on day 3 (mouse): ~15%
weight change and clinical signs (mouse): no weight change and no negative clinical signs
